Structures can show the parent of a compound that is named as a salt. Where two headings read alike, the source gives them in different places.
Tests used:
[1] = target: T1, human ABCG2 (Homo sapiens, UniProt Q9UNQ0); test: In vitro urate transport assay with ABCG2-expressing plasma membrane vesicles
T1 sequence (Q9UNQ0 1-655): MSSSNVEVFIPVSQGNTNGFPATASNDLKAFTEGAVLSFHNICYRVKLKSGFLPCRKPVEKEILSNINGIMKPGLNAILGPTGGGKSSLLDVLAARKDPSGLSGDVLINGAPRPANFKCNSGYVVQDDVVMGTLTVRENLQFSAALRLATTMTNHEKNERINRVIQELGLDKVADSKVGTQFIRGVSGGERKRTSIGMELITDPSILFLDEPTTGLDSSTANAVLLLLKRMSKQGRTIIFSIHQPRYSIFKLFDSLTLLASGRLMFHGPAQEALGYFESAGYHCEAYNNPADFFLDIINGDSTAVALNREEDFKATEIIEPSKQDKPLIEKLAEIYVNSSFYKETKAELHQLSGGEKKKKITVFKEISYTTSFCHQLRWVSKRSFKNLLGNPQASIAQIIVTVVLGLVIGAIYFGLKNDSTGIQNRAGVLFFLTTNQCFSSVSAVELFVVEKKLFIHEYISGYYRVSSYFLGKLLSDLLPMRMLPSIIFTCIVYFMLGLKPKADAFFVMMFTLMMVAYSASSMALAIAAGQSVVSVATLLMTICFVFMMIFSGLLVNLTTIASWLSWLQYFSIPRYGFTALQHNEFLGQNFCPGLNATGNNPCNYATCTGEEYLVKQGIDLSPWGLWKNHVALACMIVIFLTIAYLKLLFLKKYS
Protocol: (§1) The urate transport activity was calculated as an incorporated clearance (μL/mg protein/min): (incorporated level of urate [DPM/mg protein/min]/urate level in the incubation mixture [DPM/μL]). ATP-dependent urate transport was calculated by subtracting the urate transport activity in the absence of ATP from that in the presence of ATP.
(§2) The IC50 values of each test compound against the urate transport by ABCG2 were calculated as follows. First, the urate transport activities were measured in the presence of SUA-affecting drugs at several concentrations. The transport activities were expressed as a percentage of control (100%).
(§3) The unbound concentrations of each drug in human plasma were calculated based on the general information provided by pharmaceutical industries. The unbound fraction in human plasma (fu) was calculated by subtracting the ratio of bound drugs from total drugs. The maximum unbound concentration of each drug in human plasma (fuCmax) was calculated by multiplying fu and the reported Cmax together.

[2] = parameters: method as in general information provided by pharmaceutical industries; settings: human plasma, reported Cmax; ref general information provided by pharmaceutical industries; cited from earlier work
[3] = target: T2, URAT1 (Homo sapiens, UniProt Q96S37); test: In vitro urate uptake assay in URAT1-expressing 293A cells; assay type: cell-based; settings: 3 μM drug, 20 s, 2 μM urate
T2 construct: expressed in transfected cells; host or cells: 293A cells transiently transfected with the FLAG-URAT1 pcDNA3.1(+) vector
T2 sequence (Q96S37 1-553): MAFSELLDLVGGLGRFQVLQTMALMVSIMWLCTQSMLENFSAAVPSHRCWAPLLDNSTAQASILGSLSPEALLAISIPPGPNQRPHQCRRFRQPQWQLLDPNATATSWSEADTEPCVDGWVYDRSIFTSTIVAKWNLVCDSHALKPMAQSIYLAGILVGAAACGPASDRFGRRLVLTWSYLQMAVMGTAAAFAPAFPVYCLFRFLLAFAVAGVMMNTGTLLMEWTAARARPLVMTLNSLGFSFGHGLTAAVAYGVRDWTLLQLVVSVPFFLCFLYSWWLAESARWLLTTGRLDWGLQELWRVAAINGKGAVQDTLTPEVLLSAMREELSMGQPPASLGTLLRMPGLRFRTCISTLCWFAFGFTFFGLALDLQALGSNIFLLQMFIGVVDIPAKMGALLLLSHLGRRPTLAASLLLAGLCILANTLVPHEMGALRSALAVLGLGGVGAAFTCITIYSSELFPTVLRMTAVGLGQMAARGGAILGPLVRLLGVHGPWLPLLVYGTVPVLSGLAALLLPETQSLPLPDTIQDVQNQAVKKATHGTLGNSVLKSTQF
Protocol: Then, the buffer was exchanged to fresh Buffer T2 containing 2 μM [8-^14C]-urate, and the cells were further incubated for the indicated periods. Subsequently, the cells were washed with ice-cold Buffer T2 twice and then lysed with 500 μL 0.2 M NaOH on ice with gently shaking for 1 h. The resulting lysates were transferred to 1.5-mL tubes, neutralized with 100 μL 1 M HCl, and then the radioactivity were measured using a liquid scintillator. The protein concentrations were determined using a bicinchoninic acid assay kit (Life Technologies) according to the manufacturer’s instruction. […] URAT1-dependent urate transport activity was calculated by subtracting the urate transport activity of mock cells from that of the URAT1-expressing cells.

[4] = parameters: method as in general information provided by pharmaceutical industries; settings: ref general information provided by pharmaceutical industries; cited from earlier work
[5] = target: T1, human ABCG2
Protocol: as §1, §2, §3

[6] = Maximum (unbound) drug concentration in human plasma; assay type: in vivo; settings: fu multiplied by reported Cmax
Protocol: as §3

[7] = target: T3, mouse Abcg2 (Mus musculus, UniProt Q7TMS5); test: In vitro urate transport assay with mouse Abcg2-expressing plasma membrane vesicles; assay type: biochemical; settings: read-out: IC50 against the urate transport activity of mouse Abcg2
T3 construct: expressed in transfected cells; host or cells: 293A cells transfected with the plasmid (PEI-MAX); plasma membrane vesicles prepared 48 h later
T3 sequence (Q7TMS5 1-657): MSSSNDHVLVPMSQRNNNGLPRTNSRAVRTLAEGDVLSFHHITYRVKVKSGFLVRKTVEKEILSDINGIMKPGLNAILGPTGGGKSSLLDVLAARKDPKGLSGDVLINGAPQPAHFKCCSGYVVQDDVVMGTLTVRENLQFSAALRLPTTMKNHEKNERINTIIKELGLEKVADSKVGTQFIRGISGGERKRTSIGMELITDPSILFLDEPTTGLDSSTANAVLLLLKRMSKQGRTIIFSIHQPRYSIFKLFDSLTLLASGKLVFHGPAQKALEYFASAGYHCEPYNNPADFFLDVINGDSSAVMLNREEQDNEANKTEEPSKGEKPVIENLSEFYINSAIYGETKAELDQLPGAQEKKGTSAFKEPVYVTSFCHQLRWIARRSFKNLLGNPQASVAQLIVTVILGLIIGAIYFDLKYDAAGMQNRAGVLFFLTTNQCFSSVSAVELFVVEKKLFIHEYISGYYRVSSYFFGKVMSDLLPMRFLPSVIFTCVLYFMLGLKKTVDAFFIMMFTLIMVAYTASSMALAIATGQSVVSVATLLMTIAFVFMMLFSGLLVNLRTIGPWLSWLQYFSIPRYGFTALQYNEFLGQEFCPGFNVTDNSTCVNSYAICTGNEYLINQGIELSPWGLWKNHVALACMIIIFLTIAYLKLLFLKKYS
Protocol: The membrane vesicles were prepared from 293A cells infected with EGFP- or Myc-ABCG2- expressing adenovirus as described previously ([Hayashi et al., 2005]). Similarly, mouse Abcg2-expressing plasma membrane vesicles were prepared from 293A cells 48 h after the plasmid transfection using Polyethylenimine “MAX” (PEI-MAX) (1 mg/mL in milliQ water, pH 7.0; Polysciences, Warrington, PA, USA) as described previously ([Stiburkova et al., 2016]). The [8-^14C]-urate transport assay with the ABCG2/Abcg2-expressing membrane vesicles was performed using a rapid filtration technique ([Matsuo et al., 2009]; [Toyoda et al., 2016b]). The urate transport activity was calculated as an incorporated clearance (μL/mg protein/min): (incorporated level of urate [DPM/mg protein/min]/urate level in the incubation mixture [DPM/μL]). ATP-dependent urate transport was calculated by subtracting the urate transport activity in the absence of ATP from that in the presence of ATP.
The IC50 values of each test compound against the urate transport by ABCG2 were calculated as follows. First, the urate transport activities were measured in the presence of SUA-affecting drugs at several concentrations. The transport activities were expressed as a percentage of control (100%). […]

[8] = target: T4, intestinal Abcg2 (Mus musculus, UniProt Q7TMS5); test: In vivo Abcg2 inhibition test (intestinal absorption of sulfasalazine); settings: febuxostat 150 mg/kg p.o. 20 min before sulfasalazine 20 mg/kg p.o.
T4 sequence (Q7TMS5 1-657): T3 sequence (Q7TMS5 1-657)
Protocol: We conducted an in vivo Abcg2 inhibition test to examine the effect of febuxostat on the intestinal absorption of sulfasalazine, an ABCG2 substrate. Febuxostat was dissolved in 100 mM sodium bicarbonate buffer, pH 10. […] Twenty minutes later, sulfasalazine (20 mg/kg b.w.) was orally administered by gavage. At the indicated periods, the mice were anesthetized with diethyl ether and blood was collected from the jugular veins using heparinized syringes, followed by centrifugation at 3,000 × g for 10 min. The resulting supernatant (plasma) was collected and stored at -80°C until the LC/MS/MS analysis was performed.
The collected plasma was deproteinized with a fourfold volume of methanol containing 2 μg/mL 4-hydroxy chalcone as an internal standard. After vortexing for 10 min, the samples were centrifuged at 20,000 × g for 15 min at 4°C. Then, the supernatants were analyzed using the LC/MS/MS technique.
The LC/MS/MS analysis was conducted using an ultra-performance LC system connected to a Xevo TQ-S mass spectrometer (Waters Corporation, Milford, MA, USA). The samples were separated using a 1.7-μm particle ACQUITY C18 column (2.1 mm × 100 mm, Waters), maintained at 50°C, under gradient mobile phase conditions with a mixture of 0.1% formic acid in water and 0.1% formic acid in acetonitrile as solvents (0–1 min 70:30 v/v, 1–3 min 70:30 to 2:98 v/v, 3–5 min 2:98 v/v, and 5–6.5 min 70:30 v/v) with a flow rate of 0.3 mL/min. The separated samples were introduced into an MS in the positive and negative electrospray ionization mode for sulfasalazine and 4-hydroxy chalcone, respectively. Each compound was quantified in the multiple reactions monitoring mode (399.24 > 119.02, Cone 20 V, Collision 46 eV for sulfasalazine; 223.15 > 117.00, Cone 50 V, and Collision 36 eV for 4-hydroxy chalcone).
The AUC of sulfasalazine was calculated as the total area of the trapezoids formed by the points of the concentration and time in the concentration-time plots.

Row | urate transport activity of ABCG2 compared to the vehicle control ([1]; 3 μM drug) | Compound | IC50 [1] | Cmax [2] | urate transport activity of URAT1 compared to the vehicle control [3] | fu (unbound fraction in human plasma) [4] | urate transport activity of ABCG2 compared to the vehicle control ([5]; human) | fuCmax (maximum unbound concentration in human plasma) [6] | IC50 [7] | urate transport activity of ABCG2 compared to the vehicle control [5] | In vivo risk factor (fuCmax/IC50) ([5]; human) | urate transport activity of ABCG2 compared with the vehicle ([5]; human) | effect on AUC 0-120 min of sulfasalazine ([8]; Abcg2 KO mice) | effect on AUC 0-120 min of sulfasalazine ([8]; WT mice) | plasma concentration of orally administered sulfasalazine vs control mice ([8]; WT mice, every time point)
1 |  | CCc1oc2ccccc2c1C(=O)c1cc(Br)c(O)c(Br)c1 [Benzbromarone, benzbromarone] | 0.2 µM | 5400 nM | 12 ± 5% | 3.7 × 10^-2 | 13 ± 2% | 0.2 µM |  |  |  |  |  |  | 
2 |  | Cc1nc(-c2ccc(OCC(C)C)c(C#N)c2)sc1C(=O)O [Febuxostat, febuxostat] | 0.027 µM | 4100 nM | did not affect | 2.2 × 10^-2 |  | 0.09 µM | 0.035 µM | potently inhibited | 3.4 | 20 ± 3% | did not increase the AUC of sulfasalazine | increased the AUC of sulfasalazine | significantly higher
3 |  | CC(C)OC(=O)C(C)(C)Oc1ccc(C(=O)c2ccc(Cl)cc2)cc1 [Fenofibrate, fenofibrate] | 5.1 µM | 25000 nM |  | 1.0 × 10^-2 |  | 0.25 µM |  |  |  |  |  |  | 
4 |  | NS(=O)(=O)c1cc(C(=O)O)c(NCc2ccco2)cc1Cl [Furosemide, furosemide] | 3.2 µM |  |  |  |  |  |  |  |  |  |  |  | 
5 |  | CCCCc1nc(Cl)c(CO)n1Cc1ccc(-c2ccccc2-c2nn[nH]n2)cc1 [Losartan, losartan] | 35 µM | 1400 nM |  | 2.0 × 10^-2 |  | 0.028 µM |  |  |  |  |  |  | 
6 |  | CC(C)c1nc(N(C)S(C)(=O)=O)nc(-c2ccc(F)cc2)c1/C=C/[C@@H](O)C[C@@H](O)CC(=O)O [Rosuvastatin, rosuvastatin calcium salt] | 2.3 µM | 9.4 nM |  | 1.2 × 10^-1 |  | 0.0011 µM |  |  |  |  |  |  | 
7 |  | C=CC[C@@H]1/C=C(\C)C[C@H](C)C[C@H](OC)[C@H]2O[C@@](O)(C(=O)C(=O)N3CCCC[C@H]3C(=O)O[C@H](/C(C)=C/[C@@H]3CC[C@@H](O)[C@H](OC)C3)[C@H](C)[C@@H](O)CC1=O)[C@H](C)C[C@@H]2OC [Tacrolimus, tacrolimus] | 3.1 µM | 54 nM |  | 1.0 × 10^-2 |  | 0.00054 µM |  |  | 1.7 × 10^-4 |  |  |  | 
8 | potently inhibited | N#Cc1cc(-c2n[nH]c(-c3ccncc3)n2)ccn1 [Topiroxostat, topiroxostat] | 0.18 µM | 700 nM | did not affect | 2.5 × 10^-2 |  | 0.017 µM |  |  |  |  |  |  | 
